Patent US9834535B2, “Sulfamate derivative compounds for use in treating or alleviating pain” (Bio-Pharm Solutions Co., Ltd., priority 2013, dated 2017)

Legend:
[1] = tested on: Post operation-induced pain model; assay: Antiallodynic activity on post operative-induced pain model (von Frey); assay type: in vivo, Sprague-Dawley rats; conditions: ip; rat, intraperitoneal, von Frey, 0.5 h
Procedure: Male Sprague-Dawley rats′(Orient Bio, Korea), 300˜320 g, total of 201 rats were used (details in Table 7). Rats were habituated at least 3 clays before surgery and free access to food and water (room temperature and humidity were maintained at 24±2° C. and 50±10%, respectively). The process of performing the post-operation model's surgery was adapted from Brennan et al (1996). At first, rats with allodynia (threshold valueless than 8 g) were excluded in Pre-von Frey Test. During the post-operation surgery, rats were anesthetized under gaseous anesthesia with 2% isoflurane. Rats were laid face down on a plate fixed at 37° C. to prevent against hypothermia. The ipsilateral plantar aspect (left side) of the hind paw was prepared in a sterile manner with a 10% povidone-iodine solution. […]
For efficacy measure, the threshold value of group C was assigned 100% efficacy, and the percentage of the threshold values of group A compared to group C (for each different dose level) were calculated as the efficacies. Base on these efficacy values, ED50 was calculated using log fitting. […]
For pain threshold test, all animals were placed in a stainless steel meshed chamber and habituated for 30 min in the test box. The tactile sensitivity of the ipsilateral hind paw was measured using the up-and-down method (Dixon, 1980) with seven von Frey monofilaments (0.4, 1, 2, 4, 6, 8, and 15 g) using 3 trials. […]

[2] = tested on: STZ-induced pain model; assay: Antiallodynic activity on streptozotocin (STZ)-induced diabetic pain model (von Frey); assay type: in vivo, Sprague-Dawley rats; conditions: ip, rat, intraperitoneal, 0.5 h
Procedure: Male, Sprague-Dawley rats (200-220 g, Nara Bio, Korea) were habituated for 1 week before surgery and allowed free access to food and water throughout the experimentation. Room temperature and humidity were maintained at 24±2° C. and 50±10%, respectively.
STZ-induced diabetic pain model was established with a modified method of Rakieten et al. (1963) and Bertrand Aubel et al. (2004). All animals were fasted 4 to 6 hr prior to STZ injection. STZ (sigma, USA) was dissolved in 20 mM sodium citrate buffer, pH 5.5 (sigma, USA) and intraperitoneally injected at 75 mg/kg, 4 ul/g, bw into the rats. […]
Tactile sensitivity (Mechanical allodynia) was evaluated using von Frey monofilaments before and after treatment of the compound of Examples and animals were used withdrawal threshold value was less than 4 g. […] The tactile sensitivity for ipsilateral hind paw was measured using the up-and-down method (Dixon, 1980) with seven von Frey monofilaments (0.4, 1, 2, 4, 6, 8, and 15 g) to 3 trials. […] The 50% paw withdrawal threshold for each paw was calculated using the following formula: [Xth] log=[vFr] log+ky where [vFr] is the force of the last von Frey used k=0.2249 which is the average interval (in log units) between the von Frey monofilaments, and y is a value that depends upon the pattern of withdrawal responses (Dixon, 1980). […]

[3] = tested on: acetic acid-induced writhes (abdominal constriction); assay: Writhing test (0.6% acetic acid); assay type: in vivo, ICR mice; conditions: mouse, oral, 0.5 h; read-out: Writ htest: ED50
Procedure: To examine the pain relief effect of the sulfamate derivative compounds, a writhing test was conducted in general pain animal model referring to Fischer, L. G. et al. (2008).
ICR mice (male, 24-28 g; Orient Bio, Korea) were habituated before test in test room for 1 hour. Animals were fasted 2 hr, before administration of compounds. Compounds was orally administered at the close of 20 mg/kg, 10 ul/g, bw (n=3˜5/group). All compounds were dissolved in a vehicle of 30% (v/v) PEG 400 or 20% (v/v) Tween 80. The control group was treated the vehicle without compounds.
[…] Animals were habituated in the cage for 5 min. 5 min after habituation, the number of writhes (abdominal constriction) for 15 min was counted referring to Korzeniewska-Rybicka, I. et al. (1998) and compared with that of a control.

## CC1(C)O[C@@H](COS(N)(=O)=O)[C@H](c2ccccc2Cl)O1 [Example 2, ((4S,5S)-5-(2-chlorophenyl)-2,2-dimethyl-1,3-dioxolan-4-yl)methyl sulfamate]
[1]
  ED50: 1.8 mg/kg
[2]
  ED50: 7.9 mg/kg
[3]
  ED50: 28.4 mg/kg
